For 14 compounds, AC50 results are on record in ChEMBL document CHEMBL5291721, “A preclinical secondary pharmacology resource illuminates target-adverse drug reaction associations of marketed drugs” (Nat Commun, 2023).

In experiment [1] the target is 5-hydroxytryptamine receptor 2A (Homo sapiens, UniProt P28223).
Experiment [2] concerns the target T1, Androgen receptor (Rattus norvegicus, UniProt P15207).
T1 sequence (P15207 whole entry): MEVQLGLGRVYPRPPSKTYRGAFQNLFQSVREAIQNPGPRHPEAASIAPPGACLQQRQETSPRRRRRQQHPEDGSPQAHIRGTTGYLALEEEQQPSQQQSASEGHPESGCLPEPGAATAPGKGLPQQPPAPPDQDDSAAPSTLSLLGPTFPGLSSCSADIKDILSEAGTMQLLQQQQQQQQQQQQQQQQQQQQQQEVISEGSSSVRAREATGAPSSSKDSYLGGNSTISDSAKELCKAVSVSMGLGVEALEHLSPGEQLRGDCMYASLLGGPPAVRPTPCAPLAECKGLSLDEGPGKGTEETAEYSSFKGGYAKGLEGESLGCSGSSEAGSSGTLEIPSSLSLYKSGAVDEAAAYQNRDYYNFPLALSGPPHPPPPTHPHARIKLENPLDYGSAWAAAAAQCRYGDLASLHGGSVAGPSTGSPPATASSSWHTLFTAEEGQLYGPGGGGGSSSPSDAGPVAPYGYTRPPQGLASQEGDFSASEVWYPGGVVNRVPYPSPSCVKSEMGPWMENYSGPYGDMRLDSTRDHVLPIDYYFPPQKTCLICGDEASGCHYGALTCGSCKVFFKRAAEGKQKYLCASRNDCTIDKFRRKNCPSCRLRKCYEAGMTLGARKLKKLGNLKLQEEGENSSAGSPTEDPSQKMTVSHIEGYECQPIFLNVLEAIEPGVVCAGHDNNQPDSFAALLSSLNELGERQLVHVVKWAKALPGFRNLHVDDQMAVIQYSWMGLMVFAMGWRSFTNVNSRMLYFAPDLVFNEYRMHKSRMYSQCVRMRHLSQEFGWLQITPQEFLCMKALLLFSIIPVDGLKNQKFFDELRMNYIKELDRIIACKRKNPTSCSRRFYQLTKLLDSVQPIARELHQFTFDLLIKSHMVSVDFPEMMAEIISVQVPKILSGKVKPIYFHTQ
Type of experiment: functional.

The target in experiment [3] is T1, Androgen receptor.
Experiment [4] has as its target 5-hydroxytryptamine receptor 2B (Homo sapiens, UniProt P41595).
The next experiment deals with Histamine H2 receptor (Homo sapiens, UniProt P25021).
Experiment [5] addresses 5-hydroxytryptamine receptor 6 (Homo sapiens, UniProt P50406).
The target of a further experiment is T2, D(4) dopamine receptor (Homo sapiens, UniProt P21917).
T2 sequence (P21917 whole entry): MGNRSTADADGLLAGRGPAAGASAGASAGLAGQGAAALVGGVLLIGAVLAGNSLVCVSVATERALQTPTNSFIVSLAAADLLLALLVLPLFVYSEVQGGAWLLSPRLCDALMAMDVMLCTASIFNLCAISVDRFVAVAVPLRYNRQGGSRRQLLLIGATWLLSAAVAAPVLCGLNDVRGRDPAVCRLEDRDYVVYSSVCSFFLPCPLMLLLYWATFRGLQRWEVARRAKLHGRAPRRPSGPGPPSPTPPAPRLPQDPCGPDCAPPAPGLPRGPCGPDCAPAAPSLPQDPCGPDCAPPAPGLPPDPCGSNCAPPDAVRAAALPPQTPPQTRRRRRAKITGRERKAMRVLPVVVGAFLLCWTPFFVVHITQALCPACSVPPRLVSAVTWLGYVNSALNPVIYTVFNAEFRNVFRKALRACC

For experiment [6], the target named is T3, Muscarinic acetylcholine receptor M5 (Homo sapiens, UniProt P08912).
T3 sequence (P08912 whole entry): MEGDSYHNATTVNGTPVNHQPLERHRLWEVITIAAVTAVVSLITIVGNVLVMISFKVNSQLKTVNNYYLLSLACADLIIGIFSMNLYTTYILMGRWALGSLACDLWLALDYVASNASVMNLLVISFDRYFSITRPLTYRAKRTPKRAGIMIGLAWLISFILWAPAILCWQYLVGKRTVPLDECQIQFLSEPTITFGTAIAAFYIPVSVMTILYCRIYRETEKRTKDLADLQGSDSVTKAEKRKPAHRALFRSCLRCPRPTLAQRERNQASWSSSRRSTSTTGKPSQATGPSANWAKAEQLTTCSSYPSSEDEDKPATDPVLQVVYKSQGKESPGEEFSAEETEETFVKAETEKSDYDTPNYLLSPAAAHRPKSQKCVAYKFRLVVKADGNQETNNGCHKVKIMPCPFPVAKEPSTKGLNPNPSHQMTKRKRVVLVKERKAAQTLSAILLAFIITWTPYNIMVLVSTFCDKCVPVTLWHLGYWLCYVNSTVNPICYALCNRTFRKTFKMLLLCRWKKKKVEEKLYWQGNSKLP

The target in another experiment is T4, Substance-K receptor (Homo sapiens, UniProt P21452).
T4 sequence (P21452 whole entry): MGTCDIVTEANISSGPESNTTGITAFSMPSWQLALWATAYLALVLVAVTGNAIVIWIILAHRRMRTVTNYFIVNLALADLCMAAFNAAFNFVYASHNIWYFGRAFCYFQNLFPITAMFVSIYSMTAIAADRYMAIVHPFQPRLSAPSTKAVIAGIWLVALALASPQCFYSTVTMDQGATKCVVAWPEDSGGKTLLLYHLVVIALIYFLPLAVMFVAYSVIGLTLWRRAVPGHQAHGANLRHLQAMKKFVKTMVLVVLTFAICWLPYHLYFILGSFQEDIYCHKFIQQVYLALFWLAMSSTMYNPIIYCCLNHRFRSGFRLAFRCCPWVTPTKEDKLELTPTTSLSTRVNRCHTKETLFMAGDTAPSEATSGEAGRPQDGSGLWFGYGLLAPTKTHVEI

Experiment [7] concerns the target T5, Alpha-1A adrenergic receptor (Homo sapiens, UniProt P35348).
T5 sequence (P35348 whole entry): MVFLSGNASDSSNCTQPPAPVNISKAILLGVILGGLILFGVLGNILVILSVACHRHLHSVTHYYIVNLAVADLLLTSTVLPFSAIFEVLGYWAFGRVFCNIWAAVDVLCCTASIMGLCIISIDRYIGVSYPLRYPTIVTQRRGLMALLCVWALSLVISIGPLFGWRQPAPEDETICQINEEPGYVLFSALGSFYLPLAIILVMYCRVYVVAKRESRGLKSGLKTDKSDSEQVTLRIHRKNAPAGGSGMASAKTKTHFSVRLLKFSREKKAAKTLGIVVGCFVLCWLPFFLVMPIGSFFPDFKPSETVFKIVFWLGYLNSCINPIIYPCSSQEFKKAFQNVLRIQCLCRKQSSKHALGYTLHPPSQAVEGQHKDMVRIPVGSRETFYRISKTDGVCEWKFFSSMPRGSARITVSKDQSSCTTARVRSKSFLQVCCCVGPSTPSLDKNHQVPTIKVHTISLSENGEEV
Also: assay procedure not described here.

Chain of Histamine H2 receptor (P25021 whole entry): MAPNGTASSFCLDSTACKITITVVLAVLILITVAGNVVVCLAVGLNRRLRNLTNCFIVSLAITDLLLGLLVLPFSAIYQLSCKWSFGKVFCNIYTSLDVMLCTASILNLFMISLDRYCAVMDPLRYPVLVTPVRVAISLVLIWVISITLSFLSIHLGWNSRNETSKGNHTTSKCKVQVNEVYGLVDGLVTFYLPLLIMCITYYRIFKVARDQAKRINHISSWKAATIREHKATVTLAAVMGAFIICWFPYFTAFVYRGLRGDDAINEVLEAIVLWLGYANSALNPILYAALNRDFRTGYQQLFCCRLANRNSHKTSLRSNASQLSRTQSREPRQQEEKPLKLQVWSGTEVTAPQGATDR
Chain of 5-hydroxytryptamine receptor 6 (P50406 whole entry): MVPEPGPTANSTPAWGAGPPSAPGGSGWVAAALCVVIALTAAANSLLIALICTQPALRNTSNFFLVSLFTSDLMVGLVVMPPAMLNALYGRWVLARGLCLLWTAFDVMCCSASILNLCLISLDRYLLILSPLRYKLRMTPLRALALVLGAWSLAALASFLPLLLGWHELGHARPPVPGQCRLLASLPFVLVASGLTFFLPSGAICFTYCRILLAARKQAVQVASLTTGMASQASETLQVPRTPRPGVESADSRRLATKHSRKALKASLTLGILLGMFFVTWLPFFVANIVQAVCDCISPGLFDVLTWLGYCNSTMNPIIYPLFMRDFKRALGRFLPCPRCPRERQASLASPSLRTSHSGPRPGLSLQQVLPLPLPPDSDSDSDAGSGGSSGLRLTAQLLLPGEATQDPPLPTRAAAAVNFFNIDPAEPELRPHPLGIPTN
Chain of 5-hydroxytryptamine receptor 2B (P41595 whole entry): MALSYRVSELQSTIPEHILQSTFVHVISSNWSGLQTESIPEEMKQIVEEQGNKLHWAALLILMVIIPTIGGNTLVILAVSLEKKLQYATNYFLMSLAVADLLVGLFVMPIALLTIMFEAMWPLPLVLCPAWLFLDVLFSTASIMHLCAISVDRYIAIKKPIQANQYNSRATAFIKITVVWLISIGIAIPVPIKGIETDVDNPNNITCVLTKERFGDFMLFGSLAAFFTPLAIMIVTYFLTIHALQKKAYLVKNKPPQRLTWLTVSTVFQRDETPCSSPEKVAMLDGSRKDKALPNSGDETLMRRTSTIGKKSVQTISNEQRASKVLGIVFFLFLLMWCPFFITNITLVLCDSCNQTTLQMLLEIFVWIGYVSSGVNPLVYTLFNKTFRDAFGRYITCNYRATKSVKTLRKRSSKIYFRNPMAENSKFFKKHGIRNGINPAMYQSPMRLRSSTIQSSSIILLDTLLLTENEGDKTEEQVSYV
Chain of 5-hydroxytryptamine receptor 2A (P28223 whole entry): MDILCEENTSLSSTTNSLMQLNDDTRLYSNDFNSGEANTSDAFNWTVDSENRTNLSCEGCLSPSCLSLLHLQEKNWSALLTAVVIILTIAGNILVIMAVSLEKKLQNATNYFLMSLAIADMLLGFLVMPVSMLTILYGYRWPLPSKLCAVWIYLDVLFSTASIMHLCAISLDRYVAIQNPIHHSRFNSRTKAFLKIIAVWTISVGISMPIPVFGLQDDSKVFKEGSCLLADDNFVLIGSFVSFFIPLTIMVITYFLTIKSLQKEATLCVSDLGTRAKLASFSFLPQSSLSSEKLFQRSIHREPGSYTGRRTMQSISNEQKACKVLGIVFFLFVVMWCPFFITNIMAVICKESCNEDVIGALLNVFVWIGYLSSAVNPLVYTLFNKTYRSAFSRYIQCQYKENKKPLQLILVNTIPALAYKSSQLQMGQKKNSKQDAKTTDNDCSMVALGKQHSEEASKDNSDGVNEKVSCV

The AC50 is the concentration at which the activity in the assay is half-maximal. A low value points to greater potency. `O=C(O)c1cccc(-c2noc(-c3ccccc3F)n2)c1`: the AC50 in experiment [1] is greater than 10 µM.
`CCCC(=O)N1CCCN(c2nc(N)c3cc(OC)c(OC)cc3n2)CC1` [BUNAZOSIN]: the AC50 at Androgen receptor [2] is greater than 30 µM.
The compound `C[N+](C)(C)CCOC(N)=O` [CARBAMOYLCHOLINE] displayed an AC50 at Androgen receptor [3] greater than 10 µM.
Turning to `CC(C)(N)Cc1ccc(Cl)cc1` [CHLORPHENTERMINE], the AC50 was 3 µM in experiment [4], 9.06 µM in experiment [1] and greater than 10 µM at Histamine H2 receptor.
On Androgen receptor [3], `CN(C)[C@@H]1C(O)=C(C(N)=O)C(=O)[C@@]2(O)C(O)=C3C(=O)c4c(O)ccc(Cl)c4[C@@H](O)[C@H]3C[C@@H]12` [DEMECLOCYCLINE] registered a concentration at half-maximal activity (AC50) of 2.6 µM.
In the case of `O=C(Nc1ccccc1)OCC(CN1CCCCC1)OC(=O)Nc1ccccc1` (stereo unspecified) [DIPERODON], the AC50 in [5] was greater than 10 µM; at D(4) dopamine receptor, 5.2 µM; in experiment [6], greater than 10 µM; in experiment [4] it was 1.96 µM; in experiment [1], greater than 10 µM; at Substance-K receptor, greater than 10 µM. Further, the AC50 (in experiment [7]; on Histamine H2 receptor) was greater than 10 µM each time.
Regarding `C=C1C[C@@H]2[C@H](CC[C@]3(C)C(=O)CC[C@@H]23)[C@@]2(C)C=CC(=O)C=C12` [EXEMESTANE], half-maximal activity in experiment [1] (AC50) was put at 6.96 µM.
The compound `CS(=O)(=O)Nc1cc2occ(NC=O)c(=O)c2cc1Oc1ccccc1` [IGURATIMOD] came in with an AC50 at Androgen receptor [2] greater than 30 µM.
In [1], `CC(=O)N(CC(O)CO)c1c(I)c(C(=O)NCC(O)CO)c(I)c(C(=O)NCC(O)CO)c1I` (stereo unspecified) [IOHEXOL] showed an AC50 greater than 10 µM.
For the compound `CC(C)NCC1CCc2cc(CO)c([N+](=O)[O-])cc2N1` (stereo unspecified) [OXAMNIQUINE], the AC50 on Androgen receptor [3] is greater than 10 µM.
Take `CN(C)CCCN1c2ccccc2Sc2ccccc21` [PROMAZINE]: the AC50 in experiment [5] was 0.242 µM; on D(4) dopamine receptor, 0.551 µM; in [6], 0.589 µM; in experiment [4] it was 0.192 µM; at Substance-K receptor, greater than 10 µM; in [7], 0.0138 µM. Besides, the half-maximal activity concentration (AC50) at Histamine H2 receptor turned out to be 0.111 µM.
Consider `O=P(O)(O)C(O)(Cc1cccnc1)P(=O)(O)O` [RISEDRONIC ACID], for which the AC50 (in [5]; on D(4) dopamine receptor; in [4]; in [7]; at Histamine H2 receptor) was greater than 10 µM throughout.
As to `O=C1CCC(N2C(=O)c3ccccc3C2=O)C(=O)N1` (stereo unspecified) [THALIDOMIDE], the AC50 (at D(4) dopamine receptor; in [4]; in experiment [7]; at Histamine H2 receptor) was greater than 10 µM throughout.
The compound `CC(=O)N[C@H]1[C@H]([C@H](O)[C@H](O)CO)OC(C(=O)O)=C[C@@H]1N=C(N)N` [ZANAMIVIR] registered an AC50 on Androgen receptor [3] greater than 30 µM.
